Reference: the supplement of paper PMC11208160

experiment: recombinant UMI read abundance after kanamycin selection (control-corrected) (log10(CPM+1)); higher = more efficient recombination; extreme values may be limits of the assay; sequences stand for … in AGTGCAGAGAAAATCGGCCAGTTTTCTCTGCCTGCAGTCCGCATGCCGTGGGACCCCTTGGGTTCTAACCTGTTGCCTAGATTTATGCAGCGGACTGCCTTTCTCCCAAAGTGATAAACCGG…AGGTTGGTTTCACT; site = the 11-nt donor
Outline: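 Values are reported as log10(CPM+1), obtained by converting sequencing counts to CPM, averaging replicates and scaling by control-derived factors. The counts came from recombinant UMIs amplified by PCR across the donor–target junction. These UMIs came from a pooled Escherichia coli screen of donor and donor-binding-loop pairs for the IS621 bridge recombinase, plated with IPTG (0.07 mM) plus kanamycin or left unselected, in two replicates each.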
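Further: IS621 bridge recombinase in Escherichia coli cells against a fixed T5 target plasmid.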

Sequence | recombinant UMI read abundance (log10)
CGTTATCCATGGACCGGTTTTCCCGGTAATCCGTATTTGCG (site CGTTATCCTCG) | 0.766
CGTTCCACATGGACCGGTTTTCCCGGTAATCCGTATTTGTG (site CGTTCCACTCA) | 0.0103
CGTTGACCATGGACCGGTTTTCCCGGTAATCCGTATTTGGA (site CGTTGACCTTC) | 0.0127
CGTTGATCATGGACCGGTTTTCCCGGTAATCCGTATTTGCT (site CGATCATCTAG) | 0.00695
CGTTGATCATGGACCGGTTTTCCCGGTAATCCGTATTTGCT (site CGTTGATCTAG) | 2.78
CGTTGGTCATGGACCGGTTTTCCCGGTAATCCGTATTTGCA (site CGTTGGTCTTG) | 1.29
CGTTTCGCATGGACCGGTTTTCCCGGTAATCCGTATTTGGA (site CGTTTCGCTTC) | 0.0198
CGTTTGGCATGGACCGGTTTTCCCGGTAATCCGTATTTGGT (site CGTTTGGCTAA) | 0.0435
CGTTTGGCATGGACCGGTTTTCCCGGTAATCCGTATTTGGT (site CGTTTGGCTAC) | 1.31
CGTTTGGCATGGACCGGTTTTCCCGGTAATCCGTATTTGGT (site CGTTTGGCTAG) | 0.00668
CGTTTGGCATGGACCGGTTTTCCCGGTAATCCGTATTTGGT (site CGTTTGGCTAT) | 0.959
CGTTTGGCATGGACCGGTTTTCCCGGTAATCCGTATTTGTT (site CGTTTGGCTAA) | 0.693
CGTTTGGCATGGACCGGTTTTCCCGGTAATCCGTATTTGTT (site CGTTTGGCTAC) | 0.0131
CGTTTGGCATGGACCGGTTTTCCCGGTAATCCGTATTTGTT (site CGTTTGGCTAG) | 0.989
CGTTTGGCATGGACCGGTTTTCCCGGTAATCCGTATTTGTT (site CGTTTGGCTAT) | 0.033
CGTTTGTCATGGACCGGTTTTCCCGGTAATCCGTATTTGCT (site CGTTTGACTAG) | 0
CGTTTGTCATGGACCGGTTTTCCCGGTAATCCGTATTTGCT (site CGTTTGCCTAG) | 0
CGTTTGTCATGGACCGGTTTTCCCGGTAATCCGTATTTGCT (site CGTTTGGCTAG) | 0
CGTTTGTCATGGACCGGTTTTCCCGGTAATCCGTATTTGCT (site CGTTTGTCTAG) | 1.92

Sequence | recombinant UMI read abundance (log10)
CGTTTTGCATGGACCGGTTTTCCCGGTAATCCGTATTTGCT (site CGTTTAGCTAG) | 0
CGTTTTGCATGGACCGGTTTTCCCGGTAATCCGTATTTGCT (site CGTTTCGCTAG) | 0
CGTTTTGCATGGACCGGTTTTCCCGGTAATCCGTATTTGCT (site CGTTTGGCTAG) | 0
CGTTTTGCATGGACCGGTTTTCCCGGTAATCCGTATTTGCT (site CGTTTTGCTAG) | 0.543
CTAAAAGCATGGACCGGTTTTCCCGGTAATCCGTATTTGGC (site CTAAAAGCTGC) | 0
CTAAAATCATGGACCGGTTTTCCCGGTAATCCGTATTTGAC (site CTAAAATCTGT) | 2.03
CTAAAATCATGGACCGGTTTTCCCGGTAATCCGTATTTGAC (site CTAGTATCTGT) | 0.0803
CTAAGAACATGGACCGGTTTTCCCGGTAATCCGTATTTGAA (site CTAAGAACTTT) | 2.44
CTAAGGCCATGGACCGGTTTTCCCGGTAATCCGTATTTGAC (site ATAAGGCCTGT) | 0
CTAAGGCCATGGACCGGTTTTCCCGGTAATCCGTATTTGAC (site CTAAGGCCTGT) | 0.577
CTAAGGCCATGGACCGGTTTTCCCGGTAATCCGTATTTGAC (site GTAAGGCCTGT) | 0
CTAAGGCCATGGACCGGTTTTCCCGGTAATCCGTATTTGAC (site TTAAGGCCTGT) | 0
CTAATAACATGGACCGGTTTTCCCGGTAATCCGTATTTGGA (site CTAATAACTTC) | 2.05
CTAATAACATGGACCGGTTTTCCCGGTAATCCGTATTTGGA (site CTACTAACTTC) | 0.337
CTAATAACATGGACCGGTTTTCCCGGTAATCCGTATTTGGA (site CTAGTAACTTC) | 0.0598
CTAATAACATGGACCGGTTTTCCCGGTAATCCGTATTTGGA (site CTATTAACTTC) | 1.14
CTAATTACATGGACCGGTTTTCCCGGTAATCCGTATTTGTG (site CTAATTACTCA) | 0.859
CTACCGTCATGGACCGGTTTTCCCGGTAATCCGTATTTGGG (site CTACCGTCTCC) | 0.901
CTACCTACATGGACCGGTTTTCCCGGTAATCCGTATTTGAG (site CTACCTACTCT) | 1.04

Sequence | recombinant UMI read abundance (log10)
CTACCTACATGGACCGGTTTTCCCGGTAATCCGTATTTGAG (site CTCCCTACTCT) | 0.0123
CTACCTACATGGACCGGTTTTCCCGGTAATCCGTATTTGAG (site CTGCCTACTCT) | 0.00249
CTACCTACATGGACCGGTTTTCCCGGTAATCCGTATTTGAG (site CTTCCTACTCT) | 0.0155
CTACTAACATGGACCGGTTTTCCCGGTAATCCGTATTTGAA (site CTACTAACTTA) | 0.909
CTACTAACATGGACCGGTTTTCCCGGTAATCCGTATTTGAA (site CTACTAACTTC) | 0.291
CTACTAACATGGACCGGTTTTCCCGGTAATCCGTATTTGAA (site CTACTAACTTG) | 0
CTACTAACATGGACCGGTTTTCCCGGTAATCCGTATTTGAA (site CTACTAACTTT) | 2.27
CTACTAACATGGACCGGTTTTCCCGGTAATCCGTATTTGGA (site ATACTAACTTC) | 0.387
CTACTAACATGGACCGGTTTTCCCGGTAATCCGTATTTGGA (site CAACTAACTTC) | 0.0111
CTACTAACATGGACCGGTTTTCCCGGTAATCCGTATTTGGA (site CCACTAACTTC) | 0.567
CTACTAACATGGACCGGTTTTCCCGGTAATCCGTATTTGGA (site CGACTAACTTC) | 0.339
CTACTAACATGGACCGGTTTTCCCGGTAATCCGTATTTGGA (site CTAATAACTTC) | 1.38
CTACTAACATGGACCGGTTTTCCCGGTAATCCGTATTTGGA (site CTACAAACTTC) | 0.00657
CTACTAACATGGACCGGTTTTCCCGGTAATCCGTATTTGGA (site CTACCAACTTC) | 0.307
CTACTAACATGGACCGGTTTTCCCGGTAATCCGTATTTGGA (site CTACGAACTTC) | 0.00735
CTACTAACATGGACCGGTTTTCCCGGTAATCCGTATTTGGA (site CTACTAACTAC) | 0.0107
CTACTAACATGGACCGGTTTTCCCGGTAATCCGTATTTGGA (site CTACTAACTCC) | 0.516
CTACTAACATGGACCGGTTTTCCCGGTAATCCGTATTTGGA (site CTACTAACTGC) | 0
CTACTAACATGGACCGGTTTTCCCGGTAATCCGTATTTGGA (site CTACTAACTTA) | 1.4
